Tested on: not given
Details: not given

Structure (SMILES) | melting point
C#Cc1cccc(Nc2ncnc3cc(C)ncc23)c1.Cl | 240 to 241 °C
Cl.Clc1ccc2c(c1)N(c1ncnc3[nH]ccc13)CC2 | 266 °C (dec.)
c1ccc(Nc2ncnc3ncccc23)cc1 | 258 °C
c1ccc(Nc2ncnc3cnccc23)cc1 | 161 °C
Oc1cc2ncnc(N3CCc4ccc(Cl)cc43)c2[nH]1 | 250 °C (dec.)
Cl.c1nc(Nc2ccc3[nH]ccc3c2)c2cc[nH]c2n1 | 218 to 221 °C
C#Cc1cccc(Nc2ncnc3c2ccn3CCOCCOC)c1 | 240 to 241 °C
C#Cc1cc(Nc2ncnc3cnc(C)cc23)ccc1F | 225 °C
Cc1cc2c(Nc3ccc(F)c(Cl)c3)ncnc2cn1.Cl | 251 to 258 °C
Cc1cc2c(Nc3cccc(C(F)(F)F)c3)ncnc2cn1.Cl | 269 to 270 °C
Cc1cc2c(Nc3ccc(F)c(C)c3)ncnc2cn1.Cl | 246 to 250 °C
Cc1cc2c(Nc3ccc(O)c(I)c3)ncnc2cn1.Cl | 261 to 265 °C
Cl.c1cc2c(Nc3ccc4sccc4c3)ncnc2cn1 | 280 to 282 °C
C#Cc1cccc(Nc2ncnc3cnc(C)cc23)c1.Cl | 250 to 252 °C

Continued, values first:

melting point | Structure (SMILES)
194 to 196 °C | Clc1ccc2c(c1)N(c1ncnc3cnccc13)CC2
172 °C | Cc1cccc(Nc2ncnc3cnccc23)c1
298 to 305 °C | Cc1cc2c(Nc3ccc(O)c(C)c3)ncnc2cn1.Cl.Cl
232 to 244 °C | Cc1cc2c(N3CCc4c(Br)ccc(C)c43)ncnc2cn1.Cl
212 to 229 °C | Cc1cc2c(N3CCc4ccc(Br)c(C)c43)ncnc2cn1.Cl
262 to 264 °C | Cc1cc2c(N3CCc4cc(F)c(Br)cc43)ncnc2cn1.Cl
251 to 254 °C | Cc1cc2c(Nc3ccc(Br)c(F)c3)ncnc2cn1.Cl
232 to 234 °C | Cc1cc2c(N3CCc4ccc(Cl)cc43)ncnc2cn1
262 to 263 °C | CS(=O)(=O)O.Cc1cc2c(Nc3ccc4[nH]ccc4c3)ncnc2cn1

Tested on: transplanted human mammary carcinoma which expresses epidermal growth factor receptor tyrosine kinase (EGFR)
Details: athymic nude mice; cited from earlier work

Structure (SMILES) | growth of transplanted human mammary carcinoma expressing EGFR
O=CN/C=C/c1cc(O)ccc1O [erbstatin] | selectively attenuates the growth

Tested on: another carcinoma which does not express the EGF receptor
Details: athymic nude mice; cited from earlier work

Structure (SMILES) | growth of carcinoma not expressing the EGF receptor
O=CN/C=C/c1cc(O)ccc1O [erbstatin] | without effect on the growth

Source: patent US6395733B1, “Heterocyclic ring-fused pyrimidine derivatives” (Pfizer Inc, priority 1999, dated 2002)
